In patent US12024506B2, “Compounds” (Oxford University Innovation Limited, priority 2018, dated 2024):

What follows are compounds tested against T1, GST-human KRas166 (G12V) GPPNHP (Homo sapiens, UniProt P01116, G12V) (assay: KRas small-molecule screening by SPR (Biacore T200)). Settings: compound 100 uM, 5% DMSO buffer; immobilised GST-KRas166 (G12V) GPPNHP.
T1 construct: made in house; host or cells: E. coli C41(DE3)
Assay type: binding
Method: For SPR assays pGEX-KRAS(G12V) plasmid was transformed into E. coli C41(DE3). Bacterial cells were cultured at 37° C. to an OD600 of 0.6 and induced with IPTG (final 0.1 mM) at 18° C. over night. The GST fusion proteins were extracted from bacteria pellets after cell disruption in 140 mM NaCl, 2.7 mM KCl, 10 mM NaH2PO4, 1.8 mM KH2PO4, 1 mM EDTA, 2 mM MgCl2 pH 7.4 and purified by glutathione-sepharose column chromatography (GE Healthcare), eluting with 50 mM Tris-HCl pH8.0, 10 mM reduced glutathione, 1 mM DTT, 2 mM MgCl2. The eluted proteins were dialysed against 50 mM Tris-HCl pH8.0, 1 mM DTT, 2 mM MgCl2 and concentrated to 10 mg/ml using a Biomax-30 ULTRAFREE-15 centrifugal filter device (Millipore). Purified KRAS protein was loaded with GPPNHP as described elsewhere (Pacold et al., 2000). Loaded protein was then purified by gel filtration on a HiLoad Superdex-75 HR column (GE Healthcare) in 1×PBS pH7.4, 5 mM MgCl2 and concentrated for storage.
Protocol for KRas Small-Molecule Screening and Affinity Measurements by SPR
To a previously immobilized CM5 chip (GE Healthcare BR-1005-30) with anti GST antibody via amine coupling method, GST in channel 1 and GST-human KRas166 (G12V) GPPNHP in channel 2 were immobilised. GST was immobilised between 2,000 and 5,000 Response units. KRAS166 (G12V) was immobilized between 10,000 to 15,000 Response Units.
In a 96 well plate, compounds were diluted in […], 5 mM MgCl2 and 5% DMSO Buffer to a final concentration of 100 uM. DCAl was used as positive control. Experiment also included a solvent correction curve for 5% DMSO. Screening and evaluation of the protein immobilization and the compounds screening was done accordingly to the BIACORE T200 control and evaluation software.
Calculations for how many response units are required for a 1:1 ratio of compound/protein interaction are shown below. • Protein immobilisation: 10,000 RU; average fragment 300 Da in size. • Rmax=(MWA/MWL)×RL×SM • MWA is the molecular weight of the analyte in Da • MWL is the molecular weight of the ligand in Da • RL is the immobilization level in RU • SM is the molar stoichiometry (assume 1:1) • Rmax=300/47,500×10,000×1 • Rmax=63 RU. Cell Viability Assay protocols Assay 1

Compound	SPR Response Units [Response Units]
COc1cccc(-c2cccc3c2OC(CNCc2ccc(OCCN(C)C)cc2)CO3)n1 (stereo not shown) [Example 26, {2-[4-({[8-(6-Methoxy-pyridin-2-yl)-2,3-dihydro-benzo[1,4]dioxin-2-ylmethyl]-amino}-methyl)-phenoxy]-ethyl}-dimethyl-amine]	53
O=C(NCC1COc2cccc(-c3ccc(OCCN4CCOCC4)cn3)c2O1)C1CCOCC1 (stereo not shown) [Example 111, Tetrahydro-pyran-4-carboxylic acid {8-[5-(2-morpholin-4-yl-ethoxy)-pyridin-2-yl]-2,3-dihydro-benzo[1,4]dioxin-2-ylnethyl}-amide]	29
COc1cc(NC(=O)[C@@H]2CC[C@H](N)C2)cc(-c2cccc3c2OCCO3)n1 [Example 133, (1R,3S)-3-Amino-cyclopentanecarboxylic acid[2-(2,3-dihydro-benzo[1,4]dioxin-5-yl)-6-methoxy-pyridin-4-yl]-amide]	96
COc1cc(NC(=O)N[C@@H]2CC[C@H](N)C2)cc(-c2cccc3c2OC(CNC(=O)C2CCOCC2)CO3)n1 (stereo partly shown) [Example 135]	57
COc1cc(NC(=O)N[C@@H]2CC[C@H](N)C2)cc(-c2cccc3c2OCCO3)n1 [Example 136, 1-((1R,3S)-3-Amino-cyclopentyl)-3-[2-(2,3-dihydro-benzo[1,4]dioxin-5-yl)-6-methoxy-pyridin-4-yl]-urea]	75
CN(C)Cc1cccc(Nc2ccnc(-c3cccc4c3OC(CNC(=O)C3CCOCC3)CO4)c2)c1 (stereo not shown) [Example 140, tetrahydro-pyran-4-carboxylic acid {8-[4-(3-dimethylaminomethyl-phenylamino)-pyridin-2-yl]-2,3-dihydro-benzo[1,4]dioxin-2-ylmethyl}-amide]	32
N[C@H]1CC[C@@H](NC(=O)Nc2ccnc(-c3cccc4c3OC(CNC(=O)C3CCOCC3)CO4)c2)C1 (stereo partly drawn) [Example 142, tetrahydro-pyran-4-carboxylic acid (8-{4-[3-((1R,3S)-3-amino-cyclopentyl)-ureido]-pyridin-2-yl}-2,3-dihydro-benzo[1,4]dioxin-2-ylmethyl)-amide]	26
c1cc2c(c(-c3ccc(Nc4ccc(CNCC5COCCN5)cc4)nn3)c1)OCCO2 (stereo not shown) [Example 154, [6-(2,3-Dihydro-benzo[1,4]dioxin-5-yl)-pyridazin-3-yl]-(4-{[(morpholin-3-ylmethyl)-amino]-methyl}-phenyl)-amine]	59
CN(C)Cc1cccc(C(=O)N2CCN(c3cccc4c3OCCO4)CC2)c1 [Example 156, [4-(2,3-Dihydro-benzo[1,4]dioxin-5-yl)-piperazin-1-yl]-(3-dimethylaminomethyl-phenyl)-methanone]	5
COc1nc(-c2cccc3c2OCCO3)ccc1Nc1ccc(C(=O)NCc2cc[nH]c(=O)c2)cc1 [Example 161]	16
COc1nc(-c2cccc3c2OCCO3)ccc1Nc1cccc(C(=O)NCc2cccc(F)n2)c1 [Example 168, 3-[6-(2,3-Dihydro-benzo[1,4]dioxin-5-yl)-2-methoxy-pyridin-3-ylamino]-N-(6-fluoro-pyridin-2-ylmethyl)-benzamide]	23
CC(C)(C)OC(=O)NCc1ccc(C(=O)N2CCN(c3cccc4c3OCCO4)CC2)cc1 [Example 169, {4-[4-(2,3-Dihydro-benzo[1,4]dioxin-5-yl)-piperazine-1-carbonyl]-benzyl}-carbamic acid tert-butyl Ester]	25
COc1nc(-c2cccc3c2OCCO3)ccc1Nc1ccc(C(=O)NCc2cccc(C)n2)cc1 [Example 174, 4-[6-(2,3-Dihydro-benzo[1,4]dioxin-5-yl)-2-methoxy-pyridin-3-ylamino]-N-(6-methyl-pyridin-2-ylmethyl)-benzamide]	43

Now from value to compound:

SPR Response Units [Response Units]	Compound
30	COc1nc(-c2cccc3c2OCCO3)ccc1NC(=O)CC1CCN(C)CC1 [Example 113, N-[6-(2,3-Dihydro-benzo[1,4]dioxin-5-yl)-2-methoxy-pyridin-3-yl]-2-(1-methyl-piperidin-4-yl)-acetamide]
23	COc1cc(N)cc(-c2cccc3c2O[C@H](CNC(=O)c2ccc(CN4CCN(C)CC4)o2)CO3)n1 [Example 114, 5-(4-Methyl-piperazin-1-ylmethyl)-furan-2-carboxylic acid [(R)-8-(4-amino-6-methoxy-pyridin-2-yl)-2,3-dihydro-benzo[1,4]dioxin-2-ylmethyl]-amide]
40	COc1nc(Nc2cccc3c2OC(CNC(=O)c2ccc(CN4CCN(C)CC4)o2)CO3)ccc1NC(=O)[C@H]1CCCN1 (stereo partly drawn) [Example 131, (R)-Pyrrolidine-2-carboxylic acid{2-methoxy-6-[3-({[5-(4-methyl-piperazin-1-ylmethyl)-furan-2-carbonyl]-amino}-methyl)-2,3-dihydro-benzo[1,4]dioxin-5-ylamino]-pyridin-3-yl}-amide]
50	CN1CCN(Cc2ccc(C(=O)NCC3COc4cccc(-c5cn(C)cn5)c4O3)o2)CC1 (stereo not shown) [Example 137, 5-(4-Methyl-piperazin-1-ylmethyl)-furan-2-carboxylic acid [8-(1-methyl-1H-imidazol-4-yl)-2,3-dihydro-benzo[1,4]dioxin-2-ylmethyl]-amide]
80	COc1nc(-c2cccc3c2OC(CNC(=O)C2CCOCC2)CO3)ccc1NC(=O)N[C@H]1CC[C@@H](N)C1 (stereo partly drawn) [Example 141, tetrahydro-pyran-4-carboxylic acid (8-{5-[3-((1S,3R)-3-amino-cyclopentyl)-ureido]-6-methoxy-pyridin-2-yl}-2,3-dihydro-benzo[1,4]dioxin-2-ylmethyl)-amide]
36	COc1nc(-c2cccc3c2OCCO3)ccc1Nc1ccccc1C(=O)NCC1CCN(C(=O)OC(C)(C)C)CC1 [Example 152, 4-({2-[6-(2,3-dihydro-benzo[1,4]dioxin-5-yl)-2-methoxy-pyridin-3-ylamino]-benzoylamino}-methyl)-piperidine-1-carboxylic acid tert-butyl ester]

Each compound was assayed on DLD1 cells (ATCC CCL-221) (assay: Cell viability assay 1 (CellTiter-Glo), DLD1 cells). Settings: Homo sapiens, DLD-1 cells, 48 h, second value of the cell, read-out: Cell Viability DLD-1 (concentration that decreases cell viability by 50%).
Assay type: cell-based
Method: (§1) Cells (A549 ATCC CCL-185) are cultured in Dulbecco's Modified Eagle's Medium plus 10% foetal calf serum and 2 mM L-glutamine at 37° C., 5% CO2. Cells are plated onto white clear bottom 96-well plates (5000 cells/well in 200 μl media) and left to adhere overnight at 37° C., 5% CO2. Next day, test compound (1 μl at 200× concentration in 100% DMSO) is added to give final test compound concentration 1× in 0.5% DMSO. After 48 h of incubation at 37° C., 5% CO2, 20 μl CellTiter-Glo reagent (Promega G7572) is added into each well. Plates are incubated at room temperature with shaking for 30 min and then luminescence is read using a PheraStar plate reader. The concentration of compounds that decrease cell viability by 50% is calculated from dose response curves generated using Dotmatics data analysis software.
In the DLD1 cell assay, cells (ATCC CCL-221) are cultured in RPMI-1640 medium plus 10% foetal calf serum and 2 mM L-glutamine at 37° C., 5% CO2.

Compound	IC50 [µM]
COc1cccc(-c2cccc3c2OC(CNCc2ccc(OCCN(C)C)cc2)CO3)n1 (stereo not shown) [Example 26, {2-[4-({[8-(6-Methoxy-pyridin-2-yl)-2,3-dihydro-benzo[1,4]dioxin-2-ylmethyl]-amino}-methyl)-phenoxy]-ethyl}-dimethyl-amine]	4
COc1nc(-c2cccc3c2OCCO3)ccc1Nc1ccccc1C(=O)NCC1CCNCC1 [Example 150, 2-[6-(2,3-Dihydro-benzo[1,4]dioxin-5-yl)-2-methoxy-pyridin-3-ylamino]-N-piperidin-4-ylmethyl-benzamide]	2.5
COc1nc(-c2cccc3c2OCCO3)ccc1Nc1cccc(C(=O)NCc2cn[nH]c2)c1 [Example 183, 3-[6-(2,3-Dihydro-benzo[1,4]dioxin-5-yl)-2-methoxy-pyridin-3-ylamino]-N-(1H-pyrazol-4-ylmethyl)-benzamide]	8.4

These compounds were tested on H358 cells (ATCC CRL-5807) (assay: Cell viability assay 1 (CellTiter-Glo), H358 cells). Settings: Homo sapiens, NCI-H358, 48 h, first value of the cell, read-out: Cell Viability H358 (concentration that decreases cell viability by 50%).
Assay type: cell-based
Method: as §1
In the H358 cell assay, cells (ATCC CRL-5807) are cultured in RPMI-1640 medium plus 10% foetal calf serum and 2 mM L-glutamine at 37° C., 5% CO2.

Compound	IC50 [µM]
COc1cccc(-c2cccc3c2OC(CNCc2ccc(OCCN(C)C)cc2)CO3)n1 (stereo not shown) [Example 26, {2-[4-({[8-(6-Methoxy-pyridin-2-yl)-2,3-dihydro-benzo[1,4]dioxin-2-ylmethyl]-amino}-methyl)-phenoxy]-ethyl}-dimethyl-amine]	95
COc1nc(-c2cccc3c2OCCO3)ccc1Nc1ccccc1C(=O)NCC1CCNCC1 [Example 150, 2-[6-(2,3-Dihydro-benzo[1,4]dioxin-5-yl)-2-methoxy-pyridin-3-ylamino]-N-piperidin-4-ylmethyl-benzamide]	12
COc1nc(-c2cccc3c2OCCO3)ccc1Nc1cccc(C(=O)NCc2cn[nH]c2)c1 [Example 183, 3-[6-(2,3-Dihydro-benzo[1,4]dioxin-5-yl)-2-methoxy-pyridin-3-ylamino]-N-(1H-pyrazol-4-ylmethyl)-benzamide]	15.5
